# Laboratory results as given in US20110091570A1, “Compositions and Devices for Antisepsis and Anticoagulation” (priority 2008, published 2011).
# Several values for one entry are separate records, joined by “and”; a condition that tells them apart may be missing. Equal values may be shown once.
# What was measured:
# Staphylococcus aureus = details: local administration, mouse model [Ref 21]; cited from earlier work
# citrate blood [1] = assay: Thrombin time (TT), BC Thrombin Reagent test; format: biochemical, human; details: for TT / TT (sec): Example 6, single volunteer; for Thrombin time (TT) / Thrombin time (TT), mean value: Example 7; for Thrombin time (TT): individual subjects; for Thrombin time (TT), mean value: mean of 11 subjects
# Experimental: Whole blood was taken from volunteers and enriched with trisodium citrate (0.3 mL of a 0.106 molar solution per 3 mL whole blood) (S-Monovette®, Sarstedt, Nümbrecht, Germany). Routine coagulation tests were performed on the following samples:
# The following commercial coagulation tests were performed according to the prescription of the manufacturer: prothrombin time (PT) was determined using Thromborel® S test (Dade Behring GmbH, Marburg, Germany); activated partial thromboplastin time (aPTT) was determined using Pathromtin* SL test (Dade Behring GmbH, Marburg, Germany); and thrombin time (TT) was determined using BC Thrombin Reagent test (Dade Behring GmbH, Marburg, Germany).
# Whole blood was taken from a single volunteer and enriched with trisodium citrate (0.3 mL of a 0.106 molar solution per 3 mL whole blood) (S-Monovette®, Sarstedt, Nümbrecht, Germany). Portions of 1.8 mL citrate blood were mixed with 0.2 mL NCT in 0.9% saline. The following final (after dilution in blood) NCT concentrations were tested separately: 1% (55 mM); 0.5% (27.5 mM); 0.25% (13.75 mM); 0.1% (5.5 mM); 0.05% (2.75 mM); 0.025% (1.375 mM); and 0.01% (0.55 mM). A control without NCT was performed in parallel. The following commercial coagulation tests were performed according to the prescription of the manufacturer: prothrombin time (PT) was determined using Thromborel® S test (Dade Behring GmbH, Marburg, Germany), activated partial thromboplastin time (aPTT) was determined using Pathromtin* SL test (Dade Behring GmbH, Marburg, Germany); thrombin time (TT) was determined using BC Thrombin Reagent test (Dade Behring GmbH, Marburg, Germany); and fibrinogen was determined using Multifibren* U test (Dade Behring GmbH, Marburg, Germany).
# (§1) Whole blood was taken from 11 volunteers and enriched with trisodium citrate (0.3 mL of a 0.106 molar solution per 3 mL whole blood) (S-Monovette®, Sarstedt, Nümbrecht, Germany). Commercial coagulation tests (as described in Example 6) were performed with the following samples: […]
# Pseudomonas aeruginosa = assay: Bactericidal activity of NCT without and with heparin (CFU counts); format: cell-based
# [2] = system: Escherichia coli (ATCC 11229); assay: as above; format: cell-based
# Experimental: FIG. 2 presents a plot of bactericidal activity of 1% NCT without and with 125 IE/mL heparin against Escherichia coli ATCC 11229 at pH 7.1 and 37° C. Mean values±standard error of the mean of three independent experiments. P>0.05 between NCT without and NCT with heparin.
# (§2) NCT was dissolved in 0.1 M phosphate buffer containing either 125 IE/mL heparin or no heparin. The final NCT concentration was 1%. Various bacterial species were grown in tryptic soy broth overnight, were washed twice in saline and then suspended in the NCT and NCT/heparin solutions. The species were Staphylococcus aureus (ATCC 25923), Escherichia coli (ATCC 11229), Streptococcus pyogenes, Staphylococcus epidermidis, Pseudomonas aeruginosa, Proteus mirabilis, and methicillin-resistant Staphylococcus aureus. Controls were performed with the foregoing bacterial species suspended in 0.1 M phosphate buffer without additives and in 0.1 M phosphate buffer containing 125 IE/mL heparin. All of the solutions were incubated at 37° C. and pH 7.1. After 1, 3, 5, 8, and 10 minutes, aliquots of 100 μL were removed and diluted 10-fold or 100-fold in 0.6% sodium thiosulfate solution to inactivate the NCT. Aliquots (50 μL) of these dilutions were spread on tryptic soy agar plates. The plates were incubated at 37° C. and colony forming units of bacteria were counted after 24 and 48 hours. […]
# Balb/c mice = assay: Injection of 1% NCT solution into the tail vein of mice (tolerability); format: in vivo, mouse
# Experimental: In this model, injection of 1% aqueous NCT solution was tolerated at a volume that equals approximately 10% of the total blood volume of a mouse. A 1% solution contains 55 mmol/L NCT, which is more than 1000 times greater than any physiologic concentration produced by human leukocytes.
# Balb/c mice were injected into the tail vein with a sterile aqueous solution of 1% NCT. Four mice were injected with 0.05 ml, four mice with 0.1 ml, one mouse with 0.2 ml, and one mouse with 0.3 ml, respectively, of the NCT solution.
# In this Example, injection of 1% aqueous NCT solution was tolerated in the mouse model at a volume that equals approximately 10% of the total blood volume of a mouse.
# Streptococcus pyogenes = assay: Bactericidal activity of NCT without and with heparin (CFU counts); format: cell-based
# Experimental: FIG. 3 presents a plot of bactericidal activity of 1% NCT without and with 125 IE/mL heparin against Streptococcus pyogenes at pH 7.1 and 37° C. Mean values±standard error of the mean of three independent experiments. P>0.05 between NCT without and NCT with heparin.
# as §2
# [3] = system: purulent coated crural ulcers; details: purulent coated crural ulcers [Ref. 17]; cited from earlier work
# Human Blood = details: Stief et al. [Ref 27]; cited from earlier work
# citrate blood [4] = assay: International normalized ratio (INR); format: biochemical, human; details: Example 7; for International normalized ratio (INR): individual subjects 1-11; for International normalized ratio (INR), mean value: mean of 11 subjects
# Experimental: as §1
# external otitis = details: human external otitis [Ref 15]; cited from earlier work
# [5] = system: omniresistant Pseudomonas aeruginosa; details: NCT irrigations, three patients [Ref 18]; cited from earlier work
# chronic rhinosinusitis = details: pilot study in chronic rhinosinusitis [Ref. 16]; cited from earlier work
# [6] = 0.1% NCT, virtually identical experiments
# [7] = 1% NCT, 125 IE/mL heparin, pH 7.1, 37° C., 1-10 min
# [8] = Balb/c mice, sterile aqueous 1% NCT, 0.05-0.3 ml i.v.
compound,measurement,setting,value
"O=S(=O)(O)CCNCl [NCT, N-chlorotaurine]",effect on septic arthritis,Staphylococcus aureus,inhibited septic arthritis
same,thrombin time,"citrate blood [1]; Example 5, 1% NCT final concentration in citrate blood",above the test limits
same,TT,citrate blood [1]; 0.01% (0.55 mM) NCT final,19.5 s
same,TT,citrate blood [1]; 0.025% (1.375 mM) NCT final,26.6 s
same,TT,citrate blood [1]; 0.05% (2.75 mM) NCT final,48.8 s
same,TT,citrate blood [1]; 0.1% (5.5 mM) NCT final,92.2 s
same,TT,citrate blood [1]; 0.25% (13.75 mM) NCT final,101.8 s
same,TT (sec),citrate blood [1]; 0.5% (27.5 mM) NCT final,>limit
same,TT (sec),citrate blood [1]; 1% (55 mM) NCT final,>limit
same,Thrombin time (TT),citrate blood [1]; 0.01% NCT,22 sec (5×) and 24 sec (2×) and 32 sec and 23 sec (3×)
same,"Thrombin time (TT), mean value",citrate blood [1]; 0.01% NCT,23.5 s
same,Thrombin time (TT),citrate blood [1]; 0.025% NCT,44 sec (2×) and 39 sec and 59 sec and 43 sec and 52 sec and 55 sec and 48 sec and 40 sec and 45 sec and 35 sec
same,"Thrombin time (TT), mean value",citrate blood [1]; 0.025% NCT,45.8 s
same,influence of heparin on the killing of bacteria,Pseudomonas aeruginosa; [6],no statistically significant influence of heparin on the killing of bacteria
same,killing activity of NCT with vs without heparin,Pseudomonas aeruginosa; [7],no difference in the killing activity
same,influence of heparin on the killing of bacteria,[2]; [6],no statistically significant influence of heparin on the killing of bacteria
same,killing activity of NCT with vs without heparin,[2]; [7],no difference in the killing activity
same,tolerated injection volume,Balb/c mice; 1% aqueous NCT solution i.v.,approximately 10 % of the total blood volume of a mouse
same,changes of behaviour after tail vein injection,Balb/c mice; [8],no changes of behaviour
same,survival after tail vein injection,Balb/c mice; [8],all mice survived
same,influence of heparin on the killing of bacteria,Streptococcus pyogenes; [6],no statistically significant influence of heparin on the killing of bacteria
same,killing activity of NCT with vs without heparin,Streptococcus pyogenes; [7],no difference in the killing activity
same,pain and toxicity versus chloramine T,[3],significantly less pain and was less toxic than chloramine T
same,concentration with anticoagulant effect (not below),Human Blood,2 to 3 mmol/L
same,International normalized ratio (INR),citrate blood [4]; 0.01% NCT,1.2 (5×) and 1.3 (3×) and 1.1 (3×)
same,"International normalized ratio (INR), mean value",citrate blood [4]; 0.01% NCT,1.2
same,International normalized ratio (INR),citrate blood [4]; 0.025% NCT,2.6 and 3.3 (2×) and 1.5 and 6 and 4.2 and 2.8 and 4.4 and 2 and 2.9 and 2.3
same,"International normalized ratio (INR), mean value",citrate blood [4]; 0.025% NCT,3.2
same,efficacy versus standard medication,external otitis,more effective than a standard medication
same,eradication of bacteria from the urinary bladder,[5],possible to eradicate bacteria from the urinary bladder
same,tolerability,chronic rhinosinusitis,good tolerability
